Assays:
Assay type in all cases: in vivo
[1] = system: barnyardgrass (Echinochloa crus-galli); assay: Test A greenhouse herbicide test, pre- and postemergence
Outline: (§1)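 Seeds sown in loam–sand blend got a preemergence directed soil spray of compound in non-phytotoxic solvent with surfactant. Postemergence treatment was given at 2–10 cm, one- to two-leaf stage. After ~10 d in greenhouse, injury was rated visually vs untreated controls, 0 (no effect) to 100 (complete control).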

[2] = system: foxtail, giant (giant foxtail, Setaria faberii); assay: as above
Outline: as §1

kochia (Kochia scoparia) = assay: as above
Outline: as §1

[3] = system: pigweed (Amaranthus retroflexus); assay: as above
Outline: as §1

[4] = system: ragweed (common ragweed, Ambrosia elatior); assay: as above
Outline: as §1

[5] = system: ryegrass, Italian (Italian ryegrass, Lolium multiflorum); assay: as above
Outline: as §1

[6] = system: wheat (Triticum aestivum); assay: as above; settings: Postemergence
Outline: as §1

[7] = system: blackgrass (Alopecurus myosuroides); assay: Test A greenhouse herbicide test, postemergence
Outline: (§2)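 Plants grown in loam soil/sand blend pots were treated postemergence at 2 to 10 cm height, one- to two-leaf stage, with formulated test chemicals. After approximately 10 d in a greenhouse, injury was rated visually against untreated controls on a 0 to 100 scale (0 no effect, 100 complete control).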

[8] = system: galium (catchweed bedstraw, Galium aparine); assay: Test A greenhouse herbicide test, postemergence
Outline: as §2

corn (Zea mays) = assay: Test C greenhouse herbicide test, pre- and postemergence
Outline: (§3)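 Each species was treated both before emergence, in a loam–sand soil mix, and after emergence, as 1- to 4-leaf seedlings in peat-based potting medium. Plants stayed in the greenhouse 13 to 15 d, then were scored from 0 (no effect) to 100 (complete control) relative to controls.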

[9] = system: ryegrass, Italian (Italian ryegrass, Lolium multiflorum); assay: as above
Outline: as §3

[10] = Postemergence, 125 g ai/ha, 0 to 100 scale, 0 no effect, 100 complete control
[11] = Postemergence, 500 g ai/ha, visual rating after approx. 10 d, 0 to 100 scale (0 no effect, 100 complete control)
[12] = Preemergence, 125 g ai/ha, visual injury rating, 0 to 100 scale (0 no effect, 100 complete control), approx. 10 d
[13] = Preemergence, 500 g ai/ha, 0 to 100 scale where 0 is no effect and 100 is complete control
[14] = 125 g ai/ha, 0 to 100 scale, 0 no effect, 100 complete control
[15] = 500 g ai/ha, visual rating after approx. 10 d, 0 to 100 scale (0 no effect, 100 complete control)
[16] = Postemergence, 31 g ai/ha, scale 0 to 100 (0 no effect, 100 complete control)
[17] = Postemergence, 62 g ai/ha, 0 to 100 scale (0 no effect, 100 complete control)
[18] = Postemergence, 250 g ai/ha, scale 0 to 100, 0 no effect, 100 complete control, 13 to 15 d
[19] = Preemergence, 31 g ai/ha, scale 0 to 100, 0 is no effect, 100 is complete control
[20] = Preemergence, 62 g ai/ha, scale 0 to 100, 0 is no effect, 100 is complete control
[21] = Preemergence, 125 g ai/ha, scale 0 to 100, 0 is no effect, 100 is complete control
[22] = Preemergence, 250 g ai/ha, scale 0 to 100 (0 no effect, 100 complete control)
[23] = postemergence, 125 g ai/ha, scale 0 to 100, 0 no effect, 100 complete control
[24] = Postemergence, 250 g ai/ha, scale 0 to 100, 0 is no effect, 100 is complete control

CC(=O)Oc1c(C)nn(C)c(=O)c1-c1c(C)cc(C)c2ccccc12 [Compound 153]
65: Corn plant response rating (corn (Zea mays); [22])
95: Ryegrass, Italian plant response rating [9, 17] | Plant response rating, Ryegrass, Italian [9, 18] | Plant response rating, Ryegrass, Italian [9, 20] | Ryegrass, Italian plant response rating [9, 22] | Ryegrass, Italian plant response rating [9, 23]
0: Plant response rating, Wheat [6, 14] | Plant response rating, Corn (corn (Zea mays); [19]) | Plant response rating, Corn (corn (Zea mays); [20])
100: Plant response rating, Barnyardgrass [1, 12] | Plant response rating, Barnyardgrass [1, 13] | Plant response rating, Foxtail, Giant [2, 12] | Plant response rating, Foxtail, Giant [2, 13] | Plant response rating, Pigweed [3, 11] | Plant response rating, Pigweed [3, 12] | Plant response rating, Pigweed [3, 13] | Plant response rating, Ryegrass, Italian [5, 10] | Plant response rating, Ryegrass, Italian [5, 11] | Plant response rating, Ryegrass, Italian [5, 12] | Plant response rating, Ryegrass, Italian [5, 13] | Plant response rating, Galium [8, 14] | Plant response rating, Galium [8, 15]
40: Plant response rating, Kochia (kochia (Kochia scoparia); [10]) | Plant response rating, Corn (corn (Zea mays); [21])
35: Corn plant response rating (corn (Zea mays); [17])
20: Plant response rating, Corn (corn (Zea mays); [16])
25: Corn plant response rating (corn (Zea mays); [23])
30: Plant response rating, Wheat [6, 15]
90: Plant response rating, Barnyardgrass [1, 10] | Plant response rating, Barnyardgrass [1, 11] | Plant response rating, Foxtail, Giant [2, 10] | Plant response rating, Foxtail, Giant [2, 11] | Plant response rating, Kochia (kochia (Kochia scoparia); [11]) | Plant response rating, Kochia (kochia (Kochia scoparia); [13]) | Plant response rating, Ragweed [4, 11] | Plant response rating, Ragweed [4, 13] | Plant response rating, Blackgrass [7, 14] | Plant response rating, Blackgrass [7, 15] | Plant response rating, Ryegrass, Italian [9, 16] | Plant response rating, Ryegrass, Italian [9, 19] | Plant response rating, Ryegrass, Italian [9, 21]
10: Plant response rating, Corn (corn (Zea mays); [18])
80: Plant response rating, Kochia (kochia (Kochia scoparia); [12]) | Plant response rating, Pigweed [3, 10] | Plant response rating, Ragweed [4, 10] | Plant response rating, Ragweed [4, 12]

Cc1cc(C)c2ccccc2c1-c1c(OS(C)(=O)=O)c(C)nn(C)c1=O [Compound 154]
40: Plant response rating, Ryegrass, Italian [9, 19]
0: Plant response rating, Kochia (kochia (Kochia scoparia); [12]) | Plant response rating, Wheat [6, 14]
90: Plant response rating, Barnyardgrass [1, 10] | Plant response rating, Barnyardgrass [1, 11] | Plant response rating, Foxtail, Giant [2, 10] | Plant response rating, Foxtail, Giant [2, 11] | Plant response rating, Foxtail, Giant [2, 12] | Plant response rating, Pigweed [3, 10] | Plant response rating, Pigweed [3, 11] | Plant response rating, Ragweed [4, 13] | Plant response rating, Ryegrass, Italian [5, 10] | Plant response rating, Ryegrass, Italian [5, 12] | Plant response rating, Blackgrass [7, 15] | Ryegrass, Italian plant response rating [9, 17] | Plant response rating, Ryegrass, Italian [9, 21] | Ryegrass, Italian plant response rating [9, 22] | Ryegrass, Italian plant response rating [9, 23]
55: Plant response rating, Ryegrass, Italian [9, 20]
20: Plant response rating, Kochia (kochia (Kochia scoparia); [10]) | Plant response rating, Kochia (kochia (Kochia scoparia); [13]) | Plant response rating, Wheat [6, 15]
50: Plant response rating, Kochia (kochia (Kochia scoparia); [11])
70: Plant response rating, Barnyardgrass [1, 12] | Plant response rating, Blackgrass [7, 14]
80: Plant response rating, Ragweed [4, 10] | Plant response rating, Ragweed [4, 11] | Plant response rating, Ragweed [4, 12] | Plant response rating, Ryegrass, Italian [9, 16]
95: Plant response rating, Ryegrass, Italian [9, 18]
100: Plant response rating, Barnyardgrass [1, 13] | Plant response rating, Foxtail, Giant [2, 13] | Plant response rating, Pigweed [3, 12] | Plant response rating, Pigweed [3, 13] | Plant response rating, Ryegrass, Italian [5, 11] | Plant response rating, Ryegrass, Italian [5, 13] | Plant response rating, Galium [8, 14] | Plant response rating, Galium [8, 15]
5: Corn plant response rating (corn (Zea mays); [17]) | Plant response rating, Corn (corn (Zea mays); [18]) | Plant response rating, Corn (corn (Zea mays); [19]) | Plant response rating, Corn (corn (Zea mays); [20]) | Plant response rating, Corn (corn (Zea mays); [21]) | Corn plant response rating (corn (Zea mays); [22]) | Corn plant response rating (corn (Zea mays); [23])
15: Plant response rating, Corn (corn (Zea mays); [16])

COC(=O)Oc1c(C)nn(C)c(=O)c1-c1c([N+](=O)[O-])ccc2ccccc12 [Compound 162]
50: Plant response rating, Barnyardgrass [1, 11] | Plant response rating, Ragweed [4, 12]
100: Plant response rating, Ragweed [4, 11] | Plant response rating, Ryegrass, Italian [5, 13] | Plant response rating, Galium [8, 15]
80: Plant response rating, Pigweed [3, 10] | Plant response rating, Pigweed [3, 12] | Plant response rating, Ragweed [4, 10] | Plant response rating, Ryegrass, Italian [9, 18]
20: Plant response rating, Barnyardgrass [1, 10] | Plant response rating, Barnyardgrass [1, 13] | Plant response rating, Foxtail, Giant [2, 10] | Plant response rating, Wheat [6, 15] | Plant response rating, Blackgrass [7, 14]
70: Plant response rating, Kochia (kochia (Kochia scoparia); [10]) | Ryegrass, Italian plant response rating [9, 17] | Ryegrass, Italian plant response rating [9, 23]
40: Plant response rating, Foxtail, Giant [2, 11] | Plant response rating, Foxtail, Giant [2, 13] | Plant response rating, Ryegrass, Italian [5, 12] | Plant response rating, Blackgrass [7, 15]
0: Plant response rating, Wheat [6, 14] | Plant response rating, Corn (corn (Zea mays); [16]) | Corn plant response rating (corn (Zea mays); [17]) | Plant response rating, Corn (corn (Zea mays); [18]) | Corn plant response rating (corn (Zea mays); [23])
90: Plant response rating, Kochia (kochia (Kochia scoparia); [11]) | Plant response rating, Kochia (kochia (Kochia scoparia); [13]) | Plant response rating, Pigweed [3, 11] | Plant response rating, Pigweed [3, 13] | Plant response rating, Ragweed [4, 13] | Plant response rating, Ryegrass, Italian [5, 11] | Plant response rating, Galium [8, 14]
60: Plant response rating, Kochia (kochia (Kochia scoparia); [12]) | Plant response rating, Ryegrass, Italian [5, 10] | Plant response rating, Ryegrass, Italian [9, 16]
10: Plant response rating, Barnyardgrass [1, 12] | Plant response rating, Foxtail, Giant [2, 12]

CC(=O)Oc1c(C)nn(C)c(=O)c1-c1c([N+](=O)[O-])ccc2ccccc12 [Compound 164]
50: Plant response rating, Ragweed [4, 12] | Plant response rating, Ryegrass, Italian [9, 16]
90: Plant response rating, Kochia (kochia (Kochia scoparia); [11]) | Plant response rating, Ragweed [4, 13] | Plant response rating, Ryegrass, Italian [5, 11]
5: Plant response rating, Corn (corn (Zea mays); [24]) | Corn plant response rating (corn (Zea mays); [23])
40: Plant response rating, Foxtail, Giant [2, 13] | Plant response rating, Blackgrass [7, 15]
85: Plant response rating, Ryegrass, Italian [9, 24]
30: Plant response rating, Foxtail, Giant [2, 11]
0: Plant response rating, Wheat [6, 14] | Plant response rating, Wheat [6, 15] | Plant response rating, Corn (corn (Zea mays); [16]) | Corn plant response rating (corn (Zea mays); [17])
80: Plant response rating, Pigweed [3, 10] | Plant response rating, Pigweed [3, 11] | Plant response rating, Pigweed [3, 12] | Plant response rating, Galium [8, 14] | Ryegrass, Italian plant response rating [9, 23]
20: Plant response rating, Barnyardgrass [1, 10] | Plant response rating, Barnyardgrass [1, 11] | Plant response rating, Barnyardgrass [1, 13] | Plant response rating, Foxtail, Giant [2, 10] | Plant response rating, Blackgrass [7, 14]
100: Plant response rating, Kochia (kochia (Kochia scoparia); [13]) | Plant response rating, Pigweed [3, 13] | Plant response rating, Ragweed [4, 11] | Plant response rating, Ryegrass, Italian [5, 13] | Plant response rating, Galium [8, 15]
10: Plant response rating, Barnyardgrass [1, 12] | Plant response rating, Foxtail, Giant [2, 12]
60: Plant response rating, Kochia (kochia (Kochia scoparia); [10]) | Plant response rating, Kochia (kochia (Kochia scoparia); [12]) | Plant response rating, Ryegrass, Italian [5, 12] | Ryegrass, Italian plant response rating [9, 17]
70: Plant response rating, Ragweed [4, 10] | Plant response rating, Ryegrass, Italian [5, 10]

Source: patent US10597388B2, “Pyridazinone herbicides” (FMC CORPORATION, priority 2014, dated 2020)
